Assay results reported in patent US9745349B2, “Cyclic peptide and pharmaceutical product containing same” (JAPAN SCIENCE AND TECHNOLOGY AGENCY, priority 2012, dated 2017).

molecular target: O-acyl isopeptide of Aβ (Homo sapiens, UniProt P05067); assay: Aβ aggregation inhibition test (thioflavin T fluorescence); type: biochemical; details: inhibitor 30 μM, Aβ O-acyl isopeptide 10 μM, 0.1 M phosphate buffer pH 7.4, 1% DMSO, 37° C.; DMSO control taken as 100
Sequence (P05067 672-713 limits assumed): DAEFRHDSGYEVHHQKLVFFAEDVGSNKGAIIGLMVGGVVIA
Description: An aggregation inhibitory peptide solution (DMSO solution) was added to a 0.1 M phosphate buffer (pH 7.4, 50 μL) containing O-acyl isopeptide of Aβ (10 μM) (final concentration of inhibitor: 30 μM, 1% DMSO), and the resultant mixture was incubated at 37° C. for a specific period of time. Thereafter, a portion of the reaction mixture (10 μL) was added to a mixture of thioflavin T solution (50 μM thioflavin T, 10 μL) and 50 mM glycine-NaOH buffer (pH 8.5, 396 μL). Immediately thereafter, they were mixed together, and the fluorescence intensity of thioflavin T was measured at an excitation wavelength of 440 nm and an emission wavelength of 480 nm.

Row | Substance | Aggregation inhibitory activity ratio (the lower the ratio, the higher the inhibitory activity)
1 | cyclo-D-[Lys-Leu-Val-(4-(3-phenol)-Ph)Ala-Phe] [Compound 17] | 39
2 | cyclo-D-[Lys-Leu-Val-(4-(3-Py)-Ph)Ala-Phe] [Compound 14] | 49
3 | cyclo-D-[Lys-Ala-Val-Phe-Phe] [Compound 4] | 88
4 | cyclo-D-[Lys-Leu-Val-(4-(2-Py)-Ph)Ala-Phe] [Compound 13] | 81
5 | cyclo-D-[Lys-Leu-Ala-Phe-Phe] [Compound 5] | 82
6 | cyclo-D-[Lys-Leu-Val-Ala-Phe] [Compound 6] | 106
7 | cyclo-D-[Ala-Leu-Val-Phe-Phe] (ALVFF; HELM PEPTIDE1{[dA].[dL].[dV].[dF].[dF]}$PEPTIDE1,PEPTIDE1,1:R1-5:R2$$$V2.0; SMILES CC(C)C[C@H]1NC(=O)[C@@H](C)NC(=O)[C@@H](Cc2ccccc2)NC(=O)[C@@H](Cc2ccccc2)NC(=O)[C@@H](C(C)C)NC1=O) [Compound 3] | 66
8 | cyclo-D-[Lys-Leu-Val-(4-(5-pyrimidine)-Ph)Ala-Phe] [Compound 16] | 90
9 | cyclo-D-[Lys-Leu-Val-Phe-Ala] [Compound 7] | 104
10 | cyclo-D-[Lys-Leu-Val-(4-(4-Py)-Ph)Ala-Phe] [Compound 15] | 57
11 | cyclo-D-[Lys-Leu-Val-Phe(βPh)-Phe] [Compound 8] | 28
